Source: ChEMBL document CHEMBL2151016, “Synthesis and in vitro antiproliferative activity of new 11-aminoalkylamino-substituted chromeno[2,3-b]indoles” (Eur J Med Chem, 2012)

What was measured:
MV4-11 = assay: Cytotoxicity against human MV4-11 cells after 72 hrs by MTT assay; conditions: MV4-11, 72 h
L6 = assay: Cytotoxicity against rat L6 cells; type: cell-based
BALB/3T3 [1] = assay: Cytotoxicity against mouse BALB/3T3 cells after 72 hrs by SRB assay; conditions: BALB/3T3, 72 h
HCT-116 = assay: Cytotoxicity against human HCT116 cells after 72 hrs by SRB assay; conditions: HCT-116, 72 h
A549 [2] = assay: Cytotoxicity against human A549 cells after 72 hrs by SRB assay; conditions: A549, 72 h
BALB/3T3 [3] = assay: Ratio of IC50 for mouse BALB/3T3 cells to IC50 for human HCT116 cells
A549 [4] = assay: Ratio of IC50 for human A549 cells to IC50 for human HCT116 cells; type: functional
BALB/3T3 [5] = assay: Ratio of IC50 for mouse BALB/3T3 cells to IC50 for human A549 cells

## OCCCNc1c2c3ccccc3nc-2oc2ccc(Cl)cc12
MV4-11
  IC50: > 30.6 µM

## OCCCNc1c2c3ccccc3nc-2oc2ccc(Br)cc12
MV4-11
  IC50: > 26.9 µM

## COc1ccc2oc3nc4ccccc4c-3c(NCCCNC(=O)Nc3ccccc3)c2c1
L6
  IC50: 169 µM

## COc1ccc2oc3nc4ccccc4c-3c(N3CCOCC3)c2c1
MV4-11
  IC50: 0.38 µM
BALB/3T3 [1]
  IC50: 8.73 µM
HCT-116
  IC50: 1.7 µM
A549 [2]
  IC50: 10.6 µM
BALB/3T3 [3]
  Ratio IC50: 5
A549 [4]
  Ratio IC50: 5

## CCN(CC)CCCC(C)Nc1c2c3ccccc3nc-2oc2ccccc12 (configuration not stated)
MV4-11
  IC50: 6.02 µM

## NCCCCNc1c2c3ccccc3nc-2oc2ccc(Cl)cc12
MV4-11
  IC50: 0.76 µM
BALB/3T3 [1]
  IC50: 11 µM
BALB/3T3 [5]
  Ratio IC50: 2
HCT-116
  IC50: 2.03 µM
A549 [2]
  IC50: 5.56 µM
A549 [4]
  Ratio IC50: 3

## COc1ccc2oc3nc4ccccc4c-3c(NCCCN)c2c1
MV4-11
  IC50: 0.12 µM
BALB/3T3 [1]
  IC50: 6.87 µM
HCT-116
  IC50: 1.93 µM
A549 [2]
  IC50: 9.29 µM
BALB/3T3 [3]
  Ratio IC50: 5
A549 [4]
  Ratio IC50: 5

## Clc1ccc2oc3nc4ccccc4c-3c(N3CCOCC3)c2c1
MV4-11
  IC50: > 29.5 µM

## CCN(CC)CCCC(C)Nc1c2c3ccccc3nc-2oc2ccc(Cl)cc12 (configuration not stated)
MV4-11
  IC50: 7 µM

## COc1ccc2oc3nc4ccccc4c-3c(Nc3ccccc3)c2c1
MV4-11
  IC50: 4.35 µM

## c1ccc2c3c(N4CCOCC4)c4ccccc4oc-3nc2c1
MV4-11
  IC50: 9.2 µM

## O=S(=O)(NCCCNc1c2c3ccccc3nc-2oc2ccccc12)c1ccccc1
MV4-11
  IC50: > 23.2 µM

## NCCCNc1c2c3ccccc3nc-2oc2ccc(Br)cc12
MV4-11
  IC50: 0.97 µM
BALB/3T3 [1]
  IC50: 8.94 µM
HCT-116
  IC50: 4.19 µM
A549 [2]
  IC50: 6.19 µM

## CS(=O)(=O)NCCCNc1c2c3ccccc3nc-2oc2ccccc12
MV4-11
  IC50: 7.74 µM

## C=CCNc1c2c3ccccc3nc-2oc2ccc(Cl)cc12
MV4-11
  IC50: > 32.4 µM

## CS(=O)(=O)NCCCNc1c2c3ccccc3nc-2oc2ccc(Br)cc12
MV4-11
  IC50: 6.22 µM

## O=S(=O)(NCCCNc1c2c3ccccc3nc-2oc2ccc(Br)cc12)c1ccccc1
MV4-11
  IC50: > 19.6 µM

## COc1ccc2c(c1)c(NCCCNC(=O)Nc1ccccc1)c1c3ccccc3nc-1n2C
L6
  IC50: 2.7 µM

## Clc1ccc2oc3nc4ccccc4c-3c(NCCc3c[nH]c4ccccc34)c2c1
MV4-11
  IC50: 7.57 µM

## CN1CCCN(c2c3c4ccccc4nc-3oc3ccc(Cl)cc23)CC1
MV4-11
  IC50: 0.63 µM
BALB/3T3 [1]
  IC50: 16.8 µM
HCT-116
  IC50: 9.68 µM
A549 [2]
  IC50: 10.8 µM

## CCN(CC)CCCC(C)Nc1c2c3ccccc3nc-2oc2ccc(OC)cc12 (configuration not stated)
MV4-11
  IC50: 3.45 µM

## O=S(=O)(NCCCNc1c2c3ccccc3nc-2oc2ccc(Br)cc12)c1ccc2ccccc2c1
MV4-11
  IC50: 5.75 µM

## NCCCCNc1c2c3ccccc3nc-2oc2ccccc12
MV4-11
  IC50: 0.76 µM
BALB/3T3 [1]
  IC50: 12.1 µM
HCT-116
  IC50: 7.2 µM
A549 [2]
  IC50: 3.9 µM

## COc1ccc2oc3nc4ccccc4c-3c(NCCCO)c2c1
MV4-11
  IC50: 7.26 µM

## CCN(CC)CCCC(C)Nc1c2c3ccccc3nc-2oc2ccc(Br)cc12 (configuration not stated)
MV4-11
  IC50: 4.93 µM

## NCCCCNc1c2c3ccccc3nc-2oc2ccc(Br)cc12
MV4-11
  IC50: 0.72 µM
BALB/3T3 [1]
  IC50: 9.55 µM
HCT-116
  IC50: 6.74 µM
A549 [2]
  IC50: 7.36 µM

## NCCCNc1c2c3ccccc3nc-2oc2ccccc12
MV4-11
  IC50: 1.02 µM
BALB/3T3 [1]
  IC50: 13.4 µM
BALB/3T3 [5]
  Ratio IC50: 2
HCT-116
  IC50: 5.7 µM
A549 [2]
  IC50: 4.26 µM

## OCCCNc1c2c3ccccc3nc-2oc2ccccc12
MV4-11
  IC50: 7.66 µM

## NCCCNc1c2c3ccccc3nc-2oc2ccc(Cl)cc12
MV4-11
  IC50: 0.86 µM
BALB/3T3 [1]
  IC50: 10.1 µM
BALB/3T3 [5]
  Ratio IC50: 2
HCT-116
  IC50: 3.28 µM
A549 [2]
  IC50: 5.59 µM

## Brc1ccc2oc3nc4ccccc4c-3c(N3CCOCC3)c2c1
MV4-11
  IC50: 25.3 µM

## O=S(=O)(NCCCNc1c2c3ccccc3nc-2oc2ccccc12)c1ccc2ccccc2c1
MV4-11
  IC50: 2.41 µM

## COc1ccc2oc3nc4ccccc4c-3c(NCCc3c[nH]c4ccccc34)c2c1
MV4-11
  IC50: 3.04 µM
